For one series, the system named is B16 melanoma cells. Put plainly: Measurement of 50% inhibitory concentration of cAMP production (IC50) with 10 nM melanocyte-stimulating hormone. The format is cell-based. The protocol:
The 50% inhibitory concentration of cAMP production (IC50) according to the present invention regarding the compounds having a melanocyte-stimulating hormone (MSH) inhibitory activity is measured and defined as follows.
Namely, B16 melanoma cells are inoculated on a 12-well plate in such way that 1×10^4 cells are inoculated into 1 well, and cultured at 37° C. for 48 hours in the presence of 5% CO2. After the culturing, the wells are washed with 1 ml of a serum-free medium (serum-free D-MEM medium) per 1 well. Then, a serum-free medium containing 1 mM 3-isobutyl-1-methylxanthine, 10 nM melanocyte-stimulating hormone and a compound to be tested at a different concentration is added in an amount of 1 ml per 1 well, followed by incubation at 37° C. for 5 minutes. After the incubation, the medium is completely removed from the plate, 1 ml of ice-cooled 2.5% perchloric acid is exactly added thereto, and then the whole is incubated for 30 minutes under ice-cooling to extract cAMP from within the cells. After the incubation, the extract solution is neutralized by adding 4.2M potassium hydroxide solution in an amount of […] per 1 well.
The neutralized extract solution is centrifuged at 4° C. at 12,000 rpm for 10 minutes, and the amount of cAMP in the supernatant is quantitatively determined using “Biotrak cAMP EIA System” (manufactured by Amersham Pharmacia Biotech), as follows. By the way, all the operations are carried out at 5° C. or lower. First, cAMP authentic samples are prepared so as to be 0 to 3200 fM, and each sample is placed in an amount of 100 μl in a 96-well plate. Then, 200 μl of 0.05M acetate buffer (pH 5.8, containing 0.02% serum and 0.01% antiseptic agent) is placed in an NSB well (Non-specific Binding Well) and 100 μl in a blank well. In a sample well is placed 100 μl of a sample to be evaluated. In each of all the wells except for the blank well and the NSB well is added 100 μl of antiserum. The 96-well plate is capped, slowly shaken, and incubated at 3 to 5° C. for 2 hours. After the incubation, 50 μl of cAMP peroxidase is added to each of all the wells except for the blank well. The plate is capped and incubated at 3 to 5° C. for 1 hour. After the incubation, each of all the wells is washed four times with 400 μl in total of 0.01M phosphate buffer (pH 7.5, containing 0.05% “Tween 20”). The liquid remaining in the wells is removed by placing the plate in such manner that the opening parts of the wells face downward, and patting the plate on a paper.
To each of all the wells is added 150 μl of an enzyme substrate, and the plate is shaken at 15 to 30° C. for 1 hour. After the shaking, 100 μl of 1 M sulfuric acid is added to each well, and absorbance at 450 nm is measured. A calibration curve is prepared from the absorbance of the cAMP authentic samples and the amount of cAMP of each sample is determined.
The 50% inhibitory concentration of cAMP production (IC50) is defined by the value in terms of nM unit, of a 50% inhibitory concentration obtained by the above procedures, of a test compound against cAMP production with 10 nM melanocyte-stimulating hormone.
According to the method of measuring the 50% inhibitory concentration of cAMP production (IC50) explained in the above, IC50 was measured on the agents listed in following Table 2, i.e., D-1-Nal-Arg-LeuNH2, D-2-Nal-Arg-LeuNH2, L-1-Nal-Arg-LeuNH2 and D-Trp-Arg-LeuNH2.

The test system of the next series is Human melanocytes. Briefly: Test on suppression of the melanin formation caused by human melanocytes (MSH added). Particulars: for Melanin formation suppressing activity (evaluation class): class of minimum concentration showing melanin formation suppressing activity; for Suppression rate of the melanin formation: human melanocytes + MSH, 6th day. It counts as cell-based. The method, then: Human melanocytes in logarithmic growth phase were treated with trypsin and inoculated to a 6-well plate with “Medium 154s” (manufactured by Kurabo Industries Ltd., containing a growth factor (HMGS)), in an amount of 1.5×10^5 per 1 well in terms of cell number. The cells were cultured at 37° C. in a carbon dioxide incubator, the CO2 concentration being 5%, for 1 day. Thereafter, rinsing was carried out with the use of HBS (Hepes Buffer Saline), followed by medium replacement with “MCDB153” (containing fetal bovine serum, insulin, b-FGF, transferrin, and tocopherol), and followed by culturing for further 2 days. A whitening agent (containing a compound to be tested) was prepared with “MCDB153” (containing fetal bovine serum, insulin, b-FGF, transferrin, and tocopherol)+melanocyte-stimulating hormone in such way that the concentration would be 200 μM, 20 μM, or 2 μM, and was added to the 6-well plate. Also, a further 6-well plate culture was carried out with the use of “MCDB153” (containing fetal bovine serum, insulin, b-FGF, transferrin, and tocopherol)+melanocyte-stimulating hormone without the whitening agent, and still further a 6-well plate culture was carried out with the use of “MCDB153” (containing fetal bovine serum, insulin, b-FGF, transferrin, and tocopherol) alone, at the same time. The medium replacement with the above “MCDB153” (containing fetal bovine serum) containing a whitening agent was carried out twice every 2 days.
After the first addition of the whitening agent, the effect of suppressing the melanin formation was confirmed on the 6th day. Namely, the medium on each 6-well plate was removed by suction, and the wells were rinsed with HBS. Thereafter, the 6-well plate was air-dried, and ⅕M NaOH (230 μl) was added to the wells to dissolve the melanin out of the melanocytes. The solution (200 μl) was evaluated by Abs (absorbance) on a microplate reader (475 nm). The suppression rate of the melanin formation by each compound tested was calculated according to the following equation (1). The suppression rate of the melanin formation(%)={1−(A1−A3)/(A2−A3)}×100 (1) • A1: absorbance at 475 nm when both of the compound to be tested and MSH were added. • A2: absorbance at 475 nm when the compound to be tested was not added and MSH was added. • A3: absorbance at 475 nm when both of the compound to be tested and MSH were not added.

In series [1] the test system is Weiser-Maples brown guinea pigs. Put plainly: Inhibitory test of melanocyte-stimulating hormone in living body (test of suppressing pigmentation in brown guinea pigs). Details: key: ◯: positive pigmentation suppressing effect; X: no pigmentation suppressing effect; —: not tested. To be noted: 50 mM in 50% ethanol-water applied to skin, UVB irradiation, ΔL* vs 50% ethanol. The format is in vivo, guinea pig. The method, then:
Inhibitory test of melanocyte-stimulating hormone was carried out by repeating the application of each test compound on a guinea pig and irradiation with ultraviolet rays, followed by measuring the degree of coloring, as follows.
D-2-Nal-Arg-LeuNH2 (50 mM, dissolved in 50% ethanol-water) and D-Trp-Arg-LeuNH2 (50 mM, dissolved in 50% ethanol-water) were used, and 50% ethanol-water was used as the control.
Male Weiser-Maples brown guinea pigs (4 weeks old) were purchased from Tokyo Experimental Animal K.K. and used after pre-reared for 7 weeks.
The brown guinea pigs were individually fixed by means of a fixing instrument and shaved in a square shape of about 3 cm×3 cm on their back with the use of a pair of hair clippers “THRIVE MODEL 6000AD” (manufactured by Natsume Seisakusyo) and “Home Hair Clipper Ceramic ER722” (manufactured by National) and an electric shaver “Dual 1500AC/RC” (manufactured by BRAUN). The skin after shaved was wiped with a water-soaked absorbent cotton, and the moisture was removed with a paper towel “KIMWIPE” (manufactured by CRECIA).
The skin of the back of the shaven brown guinea pigs was wiped with an ethanol-soaked absorbent cotton, and the horny layer having an area of about 2 cm×2 cm was subjected to tape stripping five times with the use of an adhesive tape “Scotch 313D” (manufactured by 3M). […]

Series [2] can be described thus: Test of stability during storage (coloring of aqueous 0.1% solution, APHA method). The format is physicochemical. To be noted: for Degree of coloring (APHA Standard color): aqueous 0.1% solution stored at 4° C. for 6 months; for Stability during storage (evaluation class): class of degree of coloring, APHA standard colors. The protocol:
An aqueous 0.1% solution of D-2-Nal-Arg-LeuNH2 of the present invention, and that of D-Trp-Arg-LeuNH2 which is a known melanocyte-stimulating hormone inhibitor were prepared and stored at 4° C. for 6 months, respectively. The stability during storage was evaluated by comparing the degree of coloring with standard colors of APHA (American Public Healthy Association) method.

Where [3] appears, read: B16 melanoma cells, 10 nM melanocyte-stimulating hormone, 5 min incubation, read-out: 50% inhibitory concentration (IC50) of cAMP production.
Setting [4] is: class of 50% inhibitory concentration in the test, read-out: MSH inhibitory activity (evaluation class).

Like-named read-outs stand apart in the source and are kept apart here. Non-standard residues stand in square brackets, D forms with d. Residues, ends and D or L forms follow the SMILES beside them. 1Nal = N[C@@H](Cc1cccc2ccccc12)C(=O)O; d1Nal = N[C@H](Cc1cccc2ccccc12)C(=O)O; d2Nal = N[C@H](Cc1ccc2ccccc2c1)C(=O)O Some results are limits rather than exact numbers.

The text below walks through data of patent US7375085B1, “Melanocyte-stimulating hormone inhibitors” (Ajinomoto Co., Inc., priority 1999, dated 2008).

As for `CC(C)C[C@H](NC(=O)[C@H](CCCNC(=N)N)NC(=O)[C@H](N)Cc1cccc2ccccc12)C(N)=O` [D-1-Nal-Arg-LeuNH2] (H-[d1Nal]-Arg-Leu-NH2), the IC50 in the series with B16 melanoma cells (setting [3]) is 0.54 µM; in the series on B16 melanoma cells (setting [4]) it was 0.101 to 1 µM. The “Melanin formation suppressing activity (evaluation class)” value (“Melanin formation suppressing activity” for short) in the series with Human melanocytes is given as “B (11 to 100 μM)”. Besides, the entries for the “Suppression rate of the melanin formation” value (“Suppression rate” for short) in the series on Human melanocytes (concentration 20 μM) and with Human melanocytes (concentration 200 μM) were 43% and 52%, respectively.

With `CC(C)C[C@H](NC(=O)[C@H](CCCNC(=N)N)NC(=O)[C@H](N)Cc1ccc2ccccc2c1)C(N)=O` [D-2-Nal-Arg-LeuNH2] (H-[d2Nal]-Arg-Leu-NH2), the IC50 with B16 melanoma cells (setting [3]) was 0.042 µM; in the series on B16 melanoma cells (setting [4]), ≤ 0.1 µM. For the same compound, the “Brown Guinea pig pigmentation suppressing test (evaluation)” value in series [1] was “◯”. Moreover, the “Degree of coloring (APHA Standard color)” value in series [2] came to 20 APHA. The “Stability during storage (evaluation class)” value in series [2] is reported as “A (20 or less)”. The “Melanin formation suppressing activity” value with Human melanocytes is “A (1 to 10 μM)”. In addition, the “Suppression rate” value in the series on Human melanocytes (concentration 2 μM) is listed as 49%; in the series on Human melanocytes (concentration 20 μM), 51%; in the series on Human melanocytes (concentration 200 μM), 70%.

Take `CC(C)C[C@H](NC(=O)[C@H](CCCNC(=N)N)NC(=O)[C@H](N)Cc1c[nH]c2ccccc12)C(N)=O` [D-Trp-Arg-LeuNH2, reference compound] (H-[dW]-Arg-Leu-NH2): the figures for the IC50 in the series on B16 melanoma cells (setting [3]) and with B16 melanoma cells (setting [4]) were 0.23 µM and 0.101 to 1 µM, respectively. Also, the “Brown Guinea pig pigmentation suppressing test (evaluation)” value in series [1] is given as “X”. Also, in series [2], the “Degree of coloring (APHA Standard color)” value is on record as 200 APHA. Further, in series [2], the “Stability during storage (evaluation class)” value is “C (101 or more)”. The “Melanin formation suppressing activity” value in the series on Human melanocytes was “B (11 to 100 μM)”. Also, the “Suppression rate” value in the series on Human melanocytes (concentration 20 μM) is reported as 24%; in the series on Human melanocytes (concentration 200 μM) it was 57%.

With `CC(C)C[C@H](NC(=O)[C@H](CCCNC(=N)N)NC(=O)[C@@H](N)Cc1cccc2ccccc12)C(N)=O` [L-1-Nal-Arg-LeuNH2] (H-[1Nal]-Arg-Leu-NH2), the IC50 with B16 melanoma cells (setting [3]) is 0.47 µM; in the series with B16 melanoma cells (setting [4]), 0.101 to 1 µM. Besides, the “Melanin formation suppressing activity” value in the series with Human melanocytes is “B (11 to 100 μM)”. For the same compound, the “Suppression rate” value was determined as 8% in the series with Human melanocytes (concentration 20 μM) and 28% in the series with Human melanocytes (concentration 200 μM).
